From patent publication US10905139B2, “Refreshing beverage” (priority 2011, dated 2021)

Tests used:
[1] = in vivo; cited from earlier work
[2] = tested on: cancer cells (in cancer tissue sections); details: sugar as food substrate; cited from earlier work
[3] = tested on: cancer cells (in cancer tissue sections); assay: fermentation metabolism of cancer cells with different sugars as food substrate (Warburg); type: cell-based; details: sugar as food substrate
Text: On the other hand, tests carried out by the Nobel prizewinner Otto Heinrich Warburg have shown that the fermentation metabolism of cancer cells (in cancer tissue sections) progresses most effectively with glucose as a food substrate, specifically at a rate of 23.9 consumed units per unit of time, whereas, with the substrate fructose, it progresses less effectively by a factor of 7 (rate 3.3), and, with galactose, progresses even less effectively by a factor of 18 (rate 1.3). […] Galactose should therefore be a key sugar source in the diet of cancer patients.

[4] = in vivo; cited from earlier work; remark: listed apart in the source

SMILES: O=C[C@H](O)[C@@H](O)[C@H](O)[C@H](O)CO [glucose, reference compound]
- glycemic index (GI) [1]: 100
- rate of fermentation metabolism [2]: 23.9 consumed units per unit of time

SMILES: OC[C@H]1O[C@@](CO)(O[C@H]2O[C@H](CO)[C@@H](O)[C@H](O)[C@H]2O)[C@@H](O)[C@@H]1O [sucrose, reference compound]
- glycemic index (GI) [1]: 65

SMILES: OC[C@H]1O[C@H](OC[C@H]2OC(O)(CO)[C@@H](O)[C@@H]2O)[C@H](O)[C@@H](O)[C@@H]1O (some centres unmarked) [isomaltulose]
- glycemic index (GI) [1]: 32

SMILES: O=C(CO)[C@@H](O)[C@H](O)[C@H](O)CO [fructose, reference compound]
- factor by which fermentation progresses less effectively than with glucose [3]: 7
- rate of fermentation metabolism [2]: 3.3 consumed units per unit of time

SMILES: O=C(CO)[C@@H](O)[C@@H](O)[C@H](O)CO [Tagatose]
- glycemic index (GI) [1]: 3
- extent digested directly by the human body [4]: approximately 20%
- remaining fraction broken down by the intestinal flora [4]: 80%

SMILES: O=C[C@H](O)[C@H](O)[C@H](O)CO [Ribose]
- glycemic index (GI) [1]: negative

SMILES: OC[C@H]1O[C@H](O[C@H]2O[C@H](CO)[C@@H](O)[C@H](O)[C@H]2O)[C@H](O)[C@@H](O)[C@@H]1O [trehalose]
- glycemic index (GI) [1]: ~32

SMILES: O=C[C@H](O)[C@@H](O)[C@@H](O)[C@H](O)CO [galactose]
- factor by which fermentation progresses less effectively than with glucose [3]: 18
- glycemic index (GI) [1]: 20
- rate of fermentation metabolism [2]: 1.3 consumed units per unit of time
